From PubChem BioAssay AID1259407 (Chemical Carcinogenesis Research Information System (CCRIS), 2018)
Calls of active or inactive are those of the source. The rule behind the calls is not given here.

Test system: CCRIS mutagenicity, Ames/micronucleus/aberration tests
Assay: CCRIS mutagenicity studies

CCOc1ccc(NC(C)=O)cc1
mutagenic call (End Point: IN VITRO MICRONUCLEUS, Test System: CHL/IU CELLS, Metabolic Activation: RAT, LIVER, S-9, PHENOBARBITAL AND 5,6-BENZOFLAVONE): inactive; negative | mutagenic call (End Point: IN VITRO MICRONUCLEUS, Test System: RAT KIDNEY FIBROBLAST NRK-49F, Metabolic Activation: NONE): inactive; negative | mutagenic call (Test System: AMES SALMONELLA TYPHIMURIUM, Strain/Indicator: TA98, Metabolic Activation: GUINEA PIG, LIVER, S-9, PCB, Method: PREINCUBATION): inactive; negative | mutagenic call (Test System: AMES SALMONELLA TYPHIMURIUM, Strain/Indicator: TA98, Metabolic Activation: HAMSTER, LIVER, S-9, AROCLOR 1254, Method: STANDARD PLATE): inactive; negative | mutagenic call (Test System: AMES SALMONELLA TYPHIMURIUM, Strain/Indicator: TA98, Metabolic Activation: HAMSTER, LIVER, S-9, PCB, Method: PREINCUBATION): inactive; negative | mutagenic call (Test System: AMES SALMONELLA TYPHIMURIUM, Strain/Indicator: TA98, Metabolic Activation: MOUSE, LIVER, S-9, AROCLOR 1254, Method: STANDARD PLATE): inactive; negative | mutagenic call (Test System: AMES SALMONELLA TYPHIMURIUM, Strain/Indicator: TA98, Metabolic Activation: MOUSE, LIVER, S-9, PCB, Method: PREINCUBATION): inactive; negative | mutagenic call (Test System: AMES SALMONELLA TYPHIMURIUM, Strain/Indicator: TA98, Metabolic Activation: NONE, Method: PREINCUBATION): inactive; negative | mutagenic call (Test System: AMES SALMONELLA TYPHIMURIUM, Strain/Indicator: TA98, Metabolic Activation: NONE, Method: STANDARD PLATE): inactive; negative | mutagenic call (Test System: AMES SALMONELLA TYPHIMURIUM, Strain/Indicator: TA98, Metabolic Activation: RAT, LIVER, S-9, AROCLOR 1254, Method: STANDARD PLATE): inactive; negative | mutagenic call (Test System: AMES SALMONELLA TYPHIMURIUM, Strain/Indicator: TA98, Metabolic Activation: RAT, LIVER, S-9, PCB, Method: PREINCUBATION): inactive; negative | mutagenic call (Test System: AMES SALMONELLA TYPHIMURIUM, Strain/Indicator: TA100, Metabolic Activation: GUINEA PIG, LIVER, S-9, PCB, Method: PREINCUBATION): active; positive | mutagenic call (Test System: AMES SALMONELLA TYPHIMURIUM, Strain/Indicator: TA100, Metabolic Activation: HAMSTER, LIVER, S-9, AROCLOR 1254, Method: STANDARD PLATE): active; positive | mutagenic call (Test System: AMES SALMONELLA TYPHIMURIUM, Strain/Indicator: TA100, Metabolic Activation: HAMSTER, LIVER, S-9, KANECHLOR 400, Method: PREINCUBATION): active; positive | mutagenic call (Test System: AMES SALMONELLA TYPHIMURIUM, Strain/Indicator: TA100, Metabolic Activation: HAMSTER, LIVER, S-9, PCB, Method: PREINCUBATION): active; positive | mutagenic call (Test System: AMES SALMONELLA TYPHIMURIUM, Strain/Indicator: TA100, Metabolic Activation: HAMSTER, LIVER, S-9, Method: PREINCUBATION): inactive; negative | mutagenic call (Test System: AMES SALMONELLA TYPHIMURIUM, Strain/Indicator: TA100, Metabolic Activation: MOUSE, LIVER, S-9, AROCLOR 1254, Method: STANDARD PLATE): inactive; negative | mutagenic call (Test System: AMES SALMONELLA TYPHIMURIUM, Strain/Indicator: TA100, Metabolic Activation: MOUSE, LIVER, S-9, PCB, Method: PREINCUBATION): inactive; negative | mutagenic call (Test System: AMES SALMONELLA TYPHIMURIUM, Strain/Indicator: TA100, Metabolic Activation: NONE, Method: PREINCUBATION): inactive; negative | mutagenic call (Test System: AMES SALMONELLA TYPHIMURIUM, Strain/Indicator: TA100, Metabolic Activation: NONE, Method: STANDARD PLATE): inactive; negative | mutagenic call (Test System: AMES SALMONELLA TYPHIMURIUM, Strain/Indicator: TA100, Metabolic Activation: RAT, LIVER, S-9, AROCLOR 1254, Method: STANDARD PLATE): inactive; negative | mutagenic call (Test System: AMES SALMONELLA TYPHIMURIUM, Strain/Indicator: TA100, Metabolic Activation: RAT, LIVER, S-9, KANECHLOR 400, Method: PREINCUBATION): inactive; negative | mutagenic call (Test System: AMES SALMONELLA TYPHIMURIUM, Strain/Indicator: TA100, Metabolic Activation: RAT, LIVER, S-9, PCB, Method: PREINCUBATION): inactive; negative | mutagenic call (Test System: AMES SALMONELLA TYPHIMURIUM, Strain/Indicator: TA100, Metabolic Activation: RAT, LIVER, S-9, Method: PREINCUBATION): inactive; negative | mutagenic call (Test System: AMES SALMONELLA TYPHIMURIUM, Strain/Indicator: TA1535, Metabolic Activation: HAMSTER, LIVER, S-9, AROCLOR 1254, Method: STANDARD PLATE): inactive; negative | mutagenic call (Test System: AMES SALMONELLA TYPHIMURIUM, Strain/Indicator: TA1535, Metabolic Activation: MOUSE, LIVER, S-9, AROCLOR 1254, Method: STANDARD PLATE): inactive; negative | mutagenic call (Test System: AMES SALMONELLA TYPHIMURIUM, Strain/Indicator: TA1535, Metabolic Activation: NONE, Method: STANDARD PLATE): inactive; negative | mutagenic call (Test System: AMES SALMONELLA TYPHIMURIUM, Strain/Indicator: TA1535, Metabolic Activation: RAT, LIVER, S-9, AROCLOR 1254, Method: STANDARD PLATE): inactive; negative | mutagenic call (Test System: AMES SALMONELLA TYPHIMURIUM, Strain/Indicator: TA1537, Metabolic Activation: HAMSTER, LIVER, S-9, AROCLOR 1254, Method: STANDARD PLATE): inactive; negative | mutagenic call (Test System: AMES SALMONELLA TYPHIMURIUM, Strain/Indicator: TA1537, Metabolic Activation: MOUSE, LIVER, S-9, AROCLOR 1254, Method: STANDARD PLATE): inactive; negative | mutagenic call (Test System: AMES SALMONELLA TYPHIMURIUM, Strain/Indicator: TA1537, Metabolic Activation: NONE, Method: STANDARD PLATE): inactive; negative | mutagenic call (Test System: AMES SALMONELLA TYPHIMURIUM, Strain/Indicator: TA1537, Metabolic Activation: RAT, LIVER, S-9, AROCLOR 1254, Method: STANDARD PLATE): inactive; negative | mutagenic call (Test System: AMES SALMONELLA TYPHIMURIUM, Strain/Indicator: TA1538, Metabolic Activation: HAMSTER, LIVER, S-9, AROCLOR 1254, Method: STANDARD PLATE): inactive; negative | mutagenic call (Test System: AMES SALMONELLA TYPHIMURIUM, Strain/Indicator: TA1538, Metabolic Activation: MOUSE, LIVER, S-9, AROCLOR 1254, Method: STANDARD PLATE): inactive; negative | mutagenic call (Test System: AMES SALMONELLA TYPHIMURIUM, Strain/Indicator: TA1538, Metabolic Activation: NONE, Method: STANDARD PLATE): inactive; negative | mutagenic call (Test System: AMES SALMONELLA TYPHIMURIUM, Strain/Indicator: TA1538, Metabolic Activation: RAT, LIVER, S-9, AROCLOR 1254, Method: STANDARD PLATE): inactive; negative | mutagenic call (Test System: CHINESE HAMSTER V-79, Strain/Indicator: V-79/6-THIOGUANINE, Metabolic Activation: HAMSTER, LIVER, S-9, AROCLOR 1254, Method: SUSPENSION/PLATE): active; positive | mutagenic call (Test System: CHINESE HAMSTER V-79, Strain/Indicator: V-79/6-THIOGUANINE, Metabolic Activation: NONE, Method: SUSPENSION/PLATE): inactive; negative | mutagenic call (Test System: CHINESE HAMSTER V-79, Strain/Indicator: V-79/6-THIOGUANINE, Metabolic Activation: RAT, LIVER, S-9, PHENOBARBITAL AND BETA-NAPHTHOFLAVONE, Method: SUSPENSION/PLATE): inactive; negative | mutagenic call (Test System: E. COLI, Strain/Indicator: WP2 UVRA, Metabolic Activation: HAMSTER, LIVER, S-9, AROCLOR 1254, Method: STANDARD PLATE): inactive; negative | mutagenic call (Test System: E. COLI, Strain/Indicator: WP2 UVRA, Metabolic Activation: HAMSTER, LIVER, S-9, Method: STANDARD PLATE): inactive; negative | mutagenic call (Test System: E. COLI, Strain/Indicator: WP2 UVRA, Metabolic Activation: MOUSE, LIVER, S-9, AROCLOR 1254, Method: STANDARD PLATE): inactive; negative | mutagenic call (Test System: E. COLI, Strain/Indicator: WP2 UVRA, Metabolic Activation: MOUSE, LIVER, S-9, Method: STANDARD PLATE): inactive; negative | mutagenic call (Test System: E. COLI, Strain/Indicator: WP2 UVRA, Metabolic Activation: NONE, Method: STANDARD PLATE): inactive; negative | mutagenic call (Test System: E. COLI, Strain/Indicator: WP2 UVRA, Metabolic Activation: RAT, LIVER, S-9, AROCLOR 1254, Method: STANDARD PLATE): inactive; negative | mutagenic call (Test System: E. COLI, Strain/Indicator: WP2 UVRA, Metabolic Activation: RAT, LIVER, S-9, Method: STANDARD PLATE): inactive; negative
